Experiment [1] has as its system serum antibodies of test subjects.
The test system is the same in experiment [2]. Conditions: serum of 8 persons.

As to “Biotin-aminocaproyl-RPKVRDQ [Peptide 3C]”, in experiment [1], the “comparison of the cyclic and linear peptide, reactivity with sera” value was “more reactive with low signals with other subjects”; the “reaction with serum of test subject” value is given as “higher reaction”; the “reactivity with sera of test subjects” value is “Strong responses were observed from the serum of test subjects S5B”.
Regarding “Biotin-aminocaproyl-SRPRVRNIP [Peptide 2B]”, in experiment [1], the “reaction with serum of test subject” value is recorded as “high reaction” and the “reactivity with sera of test subjects” value is on record as “much weaker reactions”. Further, in experiment [2], the “immune responses of serum antibodies against the peptides” value is given as “especially effective in binding with certain antibodies”.

Source of the values: patent US20110191867A1.
